Laboratory results as given in patent US8008487B2, “Substituted thieno[2,3-D]pyrimidines as fungicides” (priority 2004, dated 2011).

Experiments:
Assay type in all cases: in vivo
[1] = tested on: Cochliobolus sativus; assay: Spot Blotch of Wheat (COCHSA), whole-plant fungicide test; conditions: Bipolaris sorokiniana, 24 h, one-day protectant test, read-out: COCHSA percent control of disease; for pest or weed control at 200 ppm: foliar, 200 ppm on foliage
Method: The activity of the compounds as effective fungicides was determined by applying the compounds to plants and observing control of fungal disease. The compounds were formulated at 200 ppm in 10 vol. percent acetone plus 90 vol. percent Triton X water (deionized water 99.99 wt. percent+0.01 wt. percent Triton X100), giving a “formulated test compound.” In a few cases, compounds were formulated at 100, 75 or 8.3 ppm rather than 200 ppm in 10 vol. percent acetone plus 90 vol. percent Triton X water (deionized water 99.99 wt. percent+0.01 wt. percent Triton X100), giving a ‘formulated test compound’. The compounds were tested for ability to control plant diseases in a 1-day protectant test (1DP) or a 2-day curative test (2DC). Formulated test compounds were applied to plants using a turn table sprayer fitted with two opposing air atomization nozzles which delivered approximately 1500 L/ha of spray volume. Plants were inoculated with spores of the fungus the next day (1DP), then incubated in an environment conducive to disease development. In a few cases, the compounds were tested for ability to control plant disease in a two-day curative test. Plants were inoculated with spores of the fungus two days prior to compound application, and incubated in an environment conducive to disease development both before and after compound application (2DC). For all types of tests, disease severity was evaluated 4 to 28 days later, depending on the speed of disease development.
Each pot contained 3-8 seedlings. These plants were sprayed until wet with the formulated test compound. On the following day, the leaves were inoculated with an aqueous spore suspension of Cochliobolus sativus and the plants were kept in high humidity for one to two days to permit spores to germinate and infect the leaf. The plants were then transferred to a greenhouse until disease developed on untreated control plants.
The following table presents the activity of typical compounds of the present invention when evaluated in these experiments. The effectiveness of the test compounds in controlling disease was determined by assessing the severity of disease on treated plants, then converting the severity to percent control based on the level of disease on untreated, inoculated plants.
TABLE 4: Activity of compounds as fungicides. Data are the level at which the given disease was controlled when the given compound was applied to the foliage of the plant at 200 ppm. In a few cases (noted in the table) the compound was applied to the plant at 100, 75 or 8.3 ppm. The plant was inoculated with the fungus one day after treatment. In a few cases (noted in the table) the plant was inoculated with the fungus two days before treatment.

[2] = tested on: Colletotricum lagenarium; assay: Cucumber Anthracnose (COLLLA), whole-plant fungicide test; conditions: Cucumis sativus, foliar, 24 h, 200 ppm on foliage, one-day protectant test, read-out: COLLLA percent control of disease
[3] = tested on: Erysiphe cichoracaerum; assay: Cucumber Powdery Mildew (ERYSCI), whole-plant fungicide test; conditions: Erysiphe, foliar, 24 h, 200 ppm on foliage, one-day protectant test, read-out: ERYSCI percent control of disease
[4] = tested on: Erysiphe graminis f. sp. tritici; assay: Powdery Mildew of Wheat (ERYSGT), whole-plant fungicide test; conditions: Blumeria graminis, 24 h, one-day protectant test, read-out: ERYSGT percent control of disease; for pest or weed control at 200 ppm: foliar, 200 ppm on foliage
[5] = tested on: Leptosphaeria nodorum; assay: Glume Blotch of Wheat (LEPTNO), whole-plant fungicide test; conditions: Parastagonospora nodorum, foliar, 24 h, 200 ppm on foliage, one-day protectant test, read-out: LEPTNO percent control of disease
[6] = tested on: Phytophthora infestans; assay: whole plant or invertebrate; conditions: Phytophthora infestans, in Solanum lycopersicum, 24 h; for pest or weed control at 200 ppm: foliar, read-out: PHYTIN percent control of disease, 200 ppm on foliage, tomato, one-day protectant test
[7] = tested on: Puccinia recondita tritici; assay: Leaf Rust of Wheat (PUCCRT), whole-plant fungicide test; conditions: Puccinia recondita, foliar, 24 h, 200 ppm on foliage, one-day protectant test, read-out: PUCCRT percent control of disease
[8] = tested on: Magnaporthe grisea; assay: whole plant or invertebrate; conditions: Pyricularia oryzae, in Oryza sativa, foliar, 24 h, read-out: PYRIOR percent control of disease, 200 ppm on foliage, rice, one-day protectant test
[9] = tested on: Septoria tritici; assay: Speckled Leaf Blotch of Wheat (SEPTTR), whole-plant fungicide test; conditions: Zymoseptoria tritici, 24 h, one-day protectant test, read-out: SEPTTR percent control of disease; for pest or weed control at 200 ppm: foliar, 200 ppm on foliage

Row | SMILES | pest or weed control at 200 ppm [1] [%] | pest or weed control at 200 ppm [2] [%] | pest or weed control at 200 ppm [3] [%] | pest or weed control at 200 ppm [4] [%] | pest or weed control at 200 ppm [5] [%] | pest or weed control at 100 ppm ([6]; read-out: PHYTIN percent control of disease, 100 ppm (footnote a), tomato, one-day protectant test) [%] | pest or weed control at 200 ppm [7] [%] | pest or weed control at 200 ppm [8] [%] | pest or weed control at 200 ppm [9] [%] | pest or weed control at 200 ppm [6] [%] | pest or weed control at 100 ppm ([1]; 100 ppm (footnote a)) [%] | pest or weed control at 100 ppm ([4]; 100 ppm (footnote a)) [%] | pest or weed control at 100 ppm ([9]; 100 ppm (footnote a)) [%]
1 | CC(C)c1ccc(CCNc2ncnc3scc(Cl)c23)cc1 [Compound 7] | 50 to 79 | 0 to 49 | 80 to 100 | 80 to 100 | 50 to 79 | 80 to 100 | 80 to 100 | 80 to 100 | 50 to 79 | – | – | – | –
2 | Clc1csc2ncnc(NC3Cc4ccccc4C3)c12 [Compound 9] | 80 to 100 | 0 to 49 | 80 to 100 | 0 to 49 | 50 to 79 | – | 80 to 100 | 80 to 100 | 0 to 49 | 80 to 100 | – | – | –
3 | CC(Nc1ncnc2scc(Cl)c12)c1ccc[nH]1 (stereo not drawn) [Compound 11] | 0 to 49 | 0 to 49 | 0 to 49 | 0 to 49 | 50 to 79 | – | 50 to 79 | 50 to 79 | 50 to 79 | 0 to 49 | – | – | –
4 | CC(Nc1ncnc2scc(Cl)c12)c1ccn(C)c1 (stereo not drawn) [Compound 12] | 0 to 49 | 0 to 49 | 0 to 49 | 0 to 49 | 50 to 79 | – | 50 to 79 | 80 to 100 | 0 to 49 | 80 to 100 | – | – | –
5 | CC(Nc1ncnc2scc(Cl)c12)c1cccn1C (stereo not drawn) [Compound 13] | 0 to 49 | 0 to 49 | 0 to 49 | 0 to 49 | 0 to 49 | – | 0 to 49 | 50 to 79 | 0 to 49 | 0 to 49 | – | – | –
6 | COCc1ccc(C(C)Nc2ncnc3scc(Cl)c23)cc1 (stereo not drawn) [Compound 14] | 0 to 49 | 80 to 100 | 80 to 100 | 80 to 100 | 80 to 100 | – | 80 to 100 | 80 to 100 | 80 to 100 | 80 to 100 | – | – | –
7 | CC(Nc1ncnc2scc(Cl)c12)c1cc[nH]c1 (stereo not drawn) [Compound 15] | 0 to 49 | 0 to 49 | 0 to 49 | 0 to 49 | 0 to 49 | – | 80 to 100 | 50 to 79 | 0 to 49 | 0 to 49 | – | – | –
8 | CC(Nc1ncnc2scc(Cl)c12)c1ccn(C(C)C)c1 (stereo not drawn) [Compound 16] | 50 to 79 | 0 to 49 | 0 to 49 | 0 to 49 | 0 to 49 | – | 0 to 49 | 50 to 79 | 0 to 49 | 0 to 49 | – | – | –
9 | Clc1csc2ncnc(C3Cc4ccccc4C3)c12 [Compound 17] | 50 to 79 | 0 to 49 | 0 to 49 | 0 to 49 | 0 to 49 | – | 0 to 49 | 0 to 49 | 0 to 49 | 0 to 49 | – | – | –
10 | CC(COc1ccc(C(F)(F)F)cn1)Nc1ncnc2scc(Cl)c12 (stereo not drawn) [Compound 18, 5-chloro-N-(1-methyl-2-{[5-(trifluoromethyl)pyridin-2-yl]oxy}ethyl)thieno [2,3-d]pyrimidin-4-amine] | 0 to 49 | 0 to 49 | 80 to 100 | 80 to 100 | 80 to 100 | – | 80 to 100 | 80 to 100 | 80 to 100 | 80 to 100 | – | – | –
11 | CC(Nc1ncnc2scc(Cl)c12)c1ccc(C(F)(F)F)cn1 (stereo not drawn) [Compound 19] | 80 to 100 | 0 to 49 | 0 to 49 | 50 to 79 | 50 to 79 | – | 50 to 79 | 80 to 100 | 50 to 79 | 0 to 49 | – | – | –
12 | COC(=O)c1ccc(CNc2ncnc3scc(Cl)c23)cc1 [Compound 20] | 0 to 49 | – | 0 to 49 | 0 to 49 | 0 to 49 | – | 0 to 49 | 0 to 49 | 50 to 79 | – | – | – | –
13 | CC(Nc1ncnc2scc(Cl)c12)c1cnco1 (stereo not drawn) [Compound 21] | 0 to 49 | – | 50 to 79 | 0 to 49 | 0 to 49 | – | 80 to 100 | 80 to 100 | 50 to 79 | – | – | – | –
14 | CC(Nc1ncnc2scc(Cl)c12)c1nccs1 (stereo not drawn) [Compound 22] | 0 to 49 | – | 80 to 100 | 0 to 49 | 0 to 49 | – | 80 to 100 | 80 to 100 | 50 to 79 | – | – | – | –
15 | CC(Nc1ncnc2scc(Cl)c12)c1ccc(OCl)nc1 (stereo not drawn) [Compound 29] | – | 0 to 49 | 80 to 100 | – | 80 to 100 | – | 80 to 100 | 80 to 100 | – | 80 to 100 | 0 to 49 | 80 to 100 | 50 to 79
16 | CC(C)c1ccc(C(C)Nc2ncnc3scc(Cl)c23)nc1 (stereo not drawn) [Compound 34] | 0 to 49 | 50 to 79 | 80 to 100 | 80 to 100 | 80 to 100 | – | 80 to 100 | 80 to 100 | 50 to 79 | 0 to 49 | – | – | –
17 | CC(Nc1ncnc2scc(Cl)c12)c1ccc(OCc2ccccc2)cn1 (stereo not drawn) [Compound 35] | 0 to 49 | 80 to 100 | 50 to 79 | 0 to 49 | 50 to 79 | – | 80 to 100 | 80 to 100 | 50 to 79 | 50 to 79 | – | – | –
18 | COc1cnc(C(C)Nc2ncnc3scc(Cl)c23)nc1 (stereo not drawn) [Compound 36] | 0 to 49 | 0 to 49 | 0 to 49 | 0 to 49 | 0 to 49 | – | 80 to 100 | 80 to 100 | 50 to 79 | 80 to 100 | – | – | –
